These results are taken from patent US9944654B2, “Nargenicin compounds and uses thereof as antibacterial agents” (priority 2014, dated 2018).

What is called IC50 is the concentration that gives 50% inhibition.

In brackets after ≈: the same amount, converted by molar mass. Like-named read-outs stand apart in the source and are kept apart here.

For assay [1], the target named is T1, E. coli DnaE (DNA polymerase III α-subunit from Escherichia coli) (Escherichia coli, UniProt P10443).
T1 construct: EcDnaE (E. coli DnaE residues 1-1160); 6xHis (N); made in house; host or cells: E. coli BL21(DE3)
T1 sequence (P10443 whole entry, the tested form may be a part): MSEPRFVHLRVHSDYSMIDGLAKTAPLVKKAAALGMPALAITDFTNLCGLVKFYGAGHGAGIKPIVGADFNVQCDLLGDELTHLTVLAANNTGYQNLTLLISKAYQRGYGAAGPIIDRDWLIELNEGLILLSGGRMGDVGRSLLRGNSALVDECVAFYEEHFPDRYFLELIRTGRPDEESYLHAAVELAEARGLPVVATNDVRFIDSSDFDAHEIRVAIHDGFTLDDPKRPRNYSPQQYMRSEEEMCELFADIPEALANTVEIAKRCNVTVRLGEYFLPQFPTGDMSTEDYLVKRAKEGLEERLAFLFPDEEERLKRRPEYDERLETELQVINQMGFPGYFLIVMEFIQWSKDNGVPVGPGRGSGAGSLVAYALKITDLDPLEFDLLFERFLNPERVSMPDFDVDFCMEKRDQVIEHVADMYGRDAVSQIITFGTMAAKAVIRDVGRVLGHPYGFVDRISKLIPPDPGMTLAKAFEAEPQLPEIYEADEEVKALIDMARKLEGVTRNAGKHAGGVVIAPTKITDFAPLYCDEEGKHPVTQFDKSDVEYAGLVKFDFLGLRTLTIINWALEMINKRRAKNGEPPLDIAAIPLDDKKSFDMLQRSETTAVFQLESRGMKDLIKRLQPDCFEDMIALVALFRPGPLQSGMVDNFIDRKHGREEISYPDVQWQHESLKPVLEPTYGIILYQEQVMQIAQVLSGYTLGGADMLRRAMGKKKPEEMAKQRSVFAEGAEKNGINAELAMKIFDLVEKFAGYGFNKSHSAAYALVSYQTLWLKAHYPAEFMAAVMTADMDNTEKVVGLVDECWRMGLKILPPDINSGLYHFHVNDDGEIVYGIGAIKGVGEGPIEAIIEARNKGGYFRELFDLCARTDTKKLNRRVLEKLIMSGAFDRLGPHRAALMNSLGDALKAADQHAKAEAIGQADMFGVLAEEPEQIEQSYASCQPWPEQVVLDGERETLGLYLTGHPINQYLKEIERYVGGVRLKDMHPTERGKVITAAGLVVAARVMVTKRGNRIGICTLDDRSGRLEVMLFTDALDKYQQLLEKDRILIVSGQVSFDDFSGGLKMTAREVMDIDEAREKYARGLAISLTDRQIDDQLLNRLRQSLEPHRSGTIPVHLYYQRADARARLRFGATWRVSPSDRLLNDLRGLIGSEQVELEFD
Briefly: In vitro DnaE single enzyme assay (E. coli). It counts as biochemical. The procedure: (§1) Plasmids encoding EcDnaE (E. coli DnaE residues 1-1160) and SaDnaE (S. aureus DnaE residues 1-1065) with 6×His N-terminal tags, were overexpressed in BL21(DE3) and BL21-AI cells (Invitrogen), respectively. Cells were grown in LB media to an OD ˜0.45 pelleted and then resuspended in Minimal Media, as described in Pryor et al. (1997, Protein Expr Purif. 10:309-19), and inducer (0.4 mM IPTG or 0.2% arabinose) for 21 hours at 18° C. at 220 rpm. Cells were then harvested, frozen for 20 minutes at −80° C. and thawed. Pellets were resuspended in 1× Talon buffer (50 mM Sodium Phosphate, 300 mM Sodium Chloride, pH 7.4) +10% glycerol +Roche PI's (-EDTA). Cells were lysed with two passes through a French press, then centrifuged for 45 minutes at 40,000 rpm (70Ti, Beckman). Supernatant was bound to 5 mL TALON resin (CLONTECH) for 1 hour at room temperature on Nutator. TALON resin was washed with 10 mM imidizole, and DnaE was eluted with 250 mM imidizole. Eluate was concentrated and run on a size exclusion column (SEC200, GE Healthcare) in the following buffer; 25 mM HEPES, 30 mM NaCl,1 mM CaCl2, 5% glycerol, pH 7.9. Pool SEC fractions based on SDS-PAGE run, aliquot, freeze, and store at -80° C.
(§2) DnaE was diluted in 50 mM potassium phosphate pH 7.5, 5 mM BME, 10% glycerol and 200 mM NaCl prior to use.
(§3) The purpose of the DnaE single enzyme assay is to determine the ability of compounds to inhibit the DNA polymerase III α-subunit homolog from Staphylococcus aureus or the α-subunit from Escherichia coli without the other components of the replication machinery. The DnaE single enzyme assay was a modified version of the method, Standard Pol III Assay Using Activated DNA and Four dNTPs, described by Butler et al., 2008, Methods in Molecular Medicine: New Antibiotic Targets 142:25-36. Briefly, in 96-well plates, enzyme was added to a mixture containing 30 mM Tris-HCl pH 7.5, 20% glycerol, 4 mM DTT, 10 mM Mg acetate, 0.025 mM dATP, 0.025 mM dGTP, 0.025 mM dc:TP, 0.011 mM ^3H-dTTP 1 mCi/ml (Perkin-Elmer), and 0.298 mg/mL Dnase I (Sigma) treated “activated” Calf Thymus DNA (Worthington Biochemical). The assay was set up so that 5 μl of compound was distributed to the plates, 90 μl of reaction mix was added to the compound, and 5 μl of enzyme was added to start the reaction. Assays were initiated by the addition of 0.8 μg/ml E. coli or 0.05 μg/ml S. aureus DnaE, incubated for 30 min at 30° C., and terminated by the addition of a 20% trichloroacetic acid and 0.2% sodium pyrophosphate solution. Precipitated labeled DNA was collected on Glass-fiber Filtermat A using Micro96 Harvester, and the filters were washed, dried, and counted in a Microbeta Trilux (Perkin Elmer). Serial dilutions of compounds (in DMSO) were added to the plates before enzyme addition.

In assay [2] the target is T2, S. aureus DnaE (DNA polymerase III α-subunit homolog from Staphylococcus aureus) (Staphylococcus aureus, UniProt Q5HF71).
T2 construct: SaDnaE (S. aureus DnaE residues 1-1065); 6xHis (N); made in house; host or cells: E. coli BL21-AI
T2 sequence (Q5HF71 1-1065): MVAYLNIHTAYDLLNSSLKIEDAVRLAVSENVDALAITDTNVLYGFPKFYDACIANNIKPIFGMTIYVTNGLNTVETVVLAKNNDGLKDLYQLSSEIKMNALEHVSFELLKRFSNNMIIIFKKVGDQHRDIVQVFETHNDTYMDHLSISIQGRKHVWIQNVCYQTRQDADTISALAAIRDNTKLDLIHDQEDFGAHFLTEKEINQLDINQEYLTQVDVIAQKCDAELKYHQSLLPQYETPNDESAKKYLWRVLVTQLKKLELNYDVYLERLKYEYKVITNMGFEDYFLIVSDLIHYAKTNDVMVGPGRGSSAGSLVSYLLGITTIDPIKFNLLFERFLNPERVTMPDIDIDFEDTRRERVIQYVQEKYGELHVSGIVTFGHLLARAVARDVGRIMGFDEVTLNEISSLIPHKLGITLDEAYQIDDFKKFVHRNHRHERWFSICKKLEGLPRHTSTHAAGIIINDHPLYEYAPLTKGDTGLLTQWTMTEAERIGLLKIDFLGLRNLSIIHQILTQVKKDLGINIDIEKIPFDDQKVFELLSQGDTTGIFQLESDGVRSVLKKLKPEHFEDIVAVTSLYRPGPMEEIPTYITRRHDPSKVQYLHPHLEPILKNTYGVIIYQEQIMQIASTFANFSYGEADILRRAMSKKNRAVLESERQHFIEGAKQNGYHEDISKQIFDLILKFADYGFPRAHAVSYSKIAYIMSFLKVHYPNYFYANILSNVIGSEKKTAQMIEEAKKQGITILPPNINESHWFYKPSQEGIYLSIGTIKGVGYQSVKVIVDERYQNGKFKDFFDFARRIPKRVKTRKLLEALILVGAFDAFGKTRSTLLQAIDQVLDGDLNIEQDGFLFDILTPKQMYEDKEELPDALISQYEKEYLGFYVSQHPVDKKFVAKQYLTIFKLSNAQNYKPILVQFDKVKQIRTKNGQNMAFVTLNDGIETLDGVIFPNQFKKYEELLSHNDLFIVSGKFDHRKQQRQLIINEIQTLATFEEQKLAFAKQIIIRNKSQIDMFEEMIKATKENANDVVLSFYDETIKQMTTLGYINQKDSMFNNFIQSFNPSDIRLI
Briefly: biochemical. It counts as biochemical. The procedure: as §1, §2, §3

Assay [3] deals with Escherichia coli MB5747 (LS 883, tolC). Briefly: microbe, parasite or virus in culture. The class given is cell-based. To be noted: * = some reduction of growth versus control at […]; for MIC: Escherichia coli, read-out: E. coli LS883 tolC (MIC), MHII broth.
The test system of assay [4] is Pseudomonas aeruginosa MB5890 (CB1101, efflux-deleted). Description: microbe, parasite or virus in culture. It counts as cell-based. The following applies: * = some reduction of growth versus control at […]; for MIC: Pseudomonas aeruginosa, read-out: P. aeruginosa MB5890 efflux-del (MIC), MHII broth.
Assay [5] has as its system Streptococcus pneumoniae MB6357 (CL 2883). Description: Nargenicin antibacterial assay (MIC), S. pneumoniae. It counts as cell-based. To be noted: for MIC: Streptococcus pneumoniae.
[6] abbreviates: read-out: S. aureus DnaE IC50 (converted).
Where [7] appears, read: read-out: S. pneumoniae MB2883 (MIC).

Consider `CO[C@H]1CC2C=C[C@H]3[C@H]4O[C@]2(/C(C)=C/[C@@H](C)[C@@H]([C@@H](C)OC(=O)OC2CCC(O)CC2)OC1=O)[C@@H]3[C@H](O)[C@@H](C)[C@H]4OC(=O)c1ccc[nH]1` (single isomer, unassigned) [Example 35], for which the IC50 in assay [1] (read-out: E. coli DnaE IC50 (converted)) is more than 76 µM; in assay [2] (read-out: S. aureus DnaE IC50), 0.0106 µM. For the same molecule, in assay [3] (MHII broth), the “E. coli LS883 tolC (MIC)” value stood at 32 µg/mL. For the same molecule, the “P. aeruginosa MB5890 efflux-del (MIC)” value in assay [4] (MHII broth) is more than 128 µg/mL. Further, the “S. pneumoniae MB2883 (MIC)” value in assay [5] (Isosensitest broth, * = some reduction of growth versus control at […]) was 64 µg/mL.
For `CCCNC(=O)O[C@H](C)[C@H]1OC(=O)[C@@H](OC)C[C@H]2C=C[C@H]3[C@H]4O[C@]2(/C(C)=C/[C@H]1C)[C@@H]3[C@H](O)[C@@H](C)[C@H]4OC(=O)c1ccc[nH]1` [Example 2, (3R,4S,7S,8aS,10aR,11R,12R,13R,14R,14aS,14bS,E)-14-hydroxy-7-methoxy-1,3,13-trimethyl-6-oxo-4-((R)-1-((propylcarbamoyl)oxy)ethyl)-3 ,4,6,7,8,8a,10a,11,12,13,14,14a-dodecahydro-11,14b-epoxynaphtho[2,1-e]oxecin-12-yl 1H-pyrrole-2-carboxylate], the values for the IC50 in assay [1] (E. coli DnaE IC50) and in assay [2] (S. aureus DnaE IC50) were 51.6 µM and 0.035 µM, respectively.
As to `CO[C@H]1CC2C=C[C@H]3[C@H]4O[C@]2(/C(C)=C/[C@@H](C)[C@@H]([C@@H](C)OC(=O)NC(CO)(CO)CO)OC1=O)[C@@H]3[C@H](O)[C@@H](C)[C@H]4OC(=O)c1ccc[nH]1` (some centres unmarked) [Example 22], the IC50 was more than 151 µM in assay [1] (E. coli DnaE IC50) and less than 0.00905 µM in assay [2] (setting [6]). In addition, the MIC stood at 4 µg/mL (≈ 6.04 µM) in assay [3], 64 µg/mL (≈ 96.6 µM) in assay [4] and 64 µg/mL (≈ 96.6 µM) in assay [5] (setting [7]).
With `CO[C@H]1CC2C=C[C@H]3[C@H]4O[C@]2(/C(C)=C/[C@@H](C)[C@@H]([C@@H](C)OC(=O)OCCCO)OC1=O)[C@@H]3[C@H](O)[C@@H](C)[C@H]4OC(=O)c1ccc[nH]1` (stereo partly drawn) [Example 26, (3R,4S,7S,10aR,11R,12R,13R,14R,14aS,14bS,E)-14-hydroxy-4-((R)-1-(((3-hydroxypropoxy)carbonyl)oxy)ethyl)-7-methoxy-1,3,13-trimethyl-6-oxo-3,4,6,7,8,8a,10a,11,12,13,14,14a-dodecahydro-11,14b-epoxynaphtho[2,1-e]oxecin-12-yl 1H-pyrrole-2-carboxylate], the figures for the IC50 in assay [1] (E. coli DnaE IC50) and in assay [2] (S. aureus DnaE IC50) were 130 µM and less than 0.00971 µM, respectively.
Consider `CCOC(=O)O[C@H](C)[C@H]1OC(=O)[C@@H](OC)CC2C=C[C@H]3[C@H]4O[C@]2(/C(C)=C/[C@H]1C)[C@@H]3[C@H](O)[C@@H](C)[C@H]4OC(=O)c1ccc[nH]1` (some centres unmarked) [Example 29], for which the IC50 in assay [1] (E. coli DnaE IC50) was 76.6 µM; in assay [2] (setting [6]), less than 0.0102 µM. Moreover, the values for the MIC in assay [3], in assay [4] and in assay [5] (setting [7]) were 8 µg/mL (≈ 13.6 µM), more than 128 µg/mL and 16 µg/mL (≈ 27.2 µM), respectively.
On to `CO[C@H]1C[C@H]2C=C[C@H]3[C@H]4O[C@]2(/C(C)=C/[C@@H](C)[C@@H]([C@@H](C)OC(=O)CBr)OC1=O)[C@@H]3[C@H](O)[C@@H](C)[C@H]4OC(=O)c1ccc[nH]1` [Example 56, (3R,4S,7S,8aS,10aR,11R,12R,13R,14R,14aS,14bS,E)-4-((R)-1-(2-bromoacetoxy)ethyl)-14-hydroxy-7-methoxy-1,3,13-trimethyl-6-oxo-3,4,6,7,8,8a,10a,11,12,13,14,14a-dodecahydro-11,14b-epoxynaphtho[2,1-e]oxecin-12-yl 1H-pyrrole-2-carboxylate], for which the IC50 in assay [1] (E. coli DnaE IC50) was 48.7 µM; in assay [2] (S. aureus DnaE IC50), less than 0.00943 µM.
On to `CO[C@H]1C[C@H]2C=C[C@H]3[C@H]4O[C@]2(/C(C)=C/[C@@H](C)[C@@H]([C@@H](C)OCSC)OC1=O)[C@@H]3C(=O)[C@@H](C)[C@H]4OC(=O)c1ccc[nH]1` [Example 58], for which the values for the IC50 in assay [1] (E. coli DnaE IC50) and in assay [2] (setting [6]) were 36.6 µM and more than 174 µM, respectively. Further, the MIC was more than 8 µg/mL in assay [3]; more than 128 µg/mL in assay [4]; more than 128 µg/mL in assay [5] (read-out: S. pneumoniae MB2883 (MIC), Isosensitest broth, * = some reduction of growth versus control at […]).
